Columns and labels:
Assay type in all cases: functional
Gossypium hirsutum [1] = test: Increase of seed cotton yield in Gossypium hirsutum (cotton) at 2.88 kg a.i./ha sprayed at 2 to 3 days before sowing without seedbed preparation measured during harvest time
Gossypium hirsutum [2] = test: Increase of boll weight in Gossypium hirsutum (cotton) at 2.88 kg a.i./ha sprayed at 2 to 3 days before sowing without seedbed preparation measured during harvest time
Gossypium hirsutum [3] = test: Increase of plant height in Gossypium hirsutum (cotton) at 2.88 kg a.i./ha sprayed at 2 to 3 days before sowing without seedbed preparation measured during harvest time
Gossypium hirsutum [4] = test: Increase of cotton cover in Gossypium hirsutum (cotton) at 2.88 kg a.i./ha sprayed at 2 to 3 days before sowing without seedbed preparation measured 2 weeks after emergence
Gossypium hirsutum [5] = test: Increase of seed cotton yield in Gossypium hirsutum (cotton) at 2.88 kg a.i./ha as pre-emergence treatment 3 to 4 days after sowing with seedbed preparation measured during harvest time
Gossypium hirsutum [6] = test: Increase of boll weight in Gossypium hirsutum (cotton) at 2.88 kg a.i./ha as pre-emergence treatment 3 to 4 days after sowing with seedbed preparation measured during harvest time
Gossypium hirsutum [7] = test: Increase of plant height in Gossypium hirsutum (cotton) at 2.88 kg a.i./ha as pre-emergence treatment 3 to 4 days after sowing with seedbed preparation measured during harvest time
Gossypium hirsutum [8] = test: Increase of cotton cover in Gossypium hirsutum (cotton) at 2.88 kg a.i./ha as pre-emergence treatment 3 to 4 days after sowing with seedbed preparation measured 2 weeks after emergence
Gossypium hirsutum [9] = test: Increase of seed cotton yield in Gossypium hirsutum (cotton) at 2.88 kg a.i./ha as pre-emergence treatment 3 to 4 days after sowing without seedbed preparation measured during harvest time
Gossypium hirsutum [10] = test: Increase of boll weight in Gossypium hirsutum (cotton) at 2.88 kg a.i./ha as pre-emergence treatment 3 to 4 days after sowing without seedbed preparation measured during harvest time
Gossypium hirsutum [11] = test: Increase of plant height in Gossypium hirsutum (cotton) at 2.88 kg a.i./ha as pre-emergence treatment 3 to 4 days after sowing without seedbed preparation measured during harvest time
Gossypium hirsutum [12] = test: Increase of cotton cover in Gossypium hirsutum (cotton) at 2.88 kg a.i./ha as pre-emergence treatment 3 to 4 days after sowing without seedbed preparation measured 2 weeks after emergence

O=C(O)CNCP(=O)(O)O [GLYPHOSATE] showed a Crop_yield (Gossypium hirsutum [1]) of 6 tons/ha, an Activity (Gossypium hirsutum [2]) of 5.2 g and an Activity (Gossypium hirsutum [3]) of 90.7 cm. It also gave an Activity (Gossypium hirsutum [4]) of 11.7%, a Crop_yield (Gossypium hirsutum [5]) of 4.8 tons/ha and an Activity (Gossypium hirsutum [6]) of 4.3 g. It also gave an Activity (Gossypium hirsutum [7]) of 91.5 cm, an Activity (Gossypium hirsutum [8]) of 7% and a Crop_yield (Gossypium hirsutum [9]) of 5.5 tons/ha. It also gave an Activity (Gossypium hirsutum [10]) of 5.9 g, an Activity (Gossypium hirsutum [11]) of 91.1 cm and an Activity (Gossypium hirsutum [12]) of 16.3%.

From ChEMBL document CHEMBL3044868, “Effect of pre-sowing and pre-emergence glyphosate applications on weedsin stale seedbed cotton” (2009)
